Measurements taken from PubChem BioAssay (NCI).
Several values for one entry are separate records, joined by “and”; a condition that tells them apart may be missing. Equal values may be shown once.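 Cultured in 96-well plates, cells were exposed to test compound for 48 hours across five concentrations. GI50: concentration for 50% inhibition of growth. TGI: concentration producing complete growth inhibition.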

Tests used:
Test in all cases: NCI tumour cell line growth inhibition, 48 h
[1] = tested on: HCC-2998 colon
[2] = tested on: HOP-92 NSCLC
[3] = tested on: DMS 273 small cell lung
[4] = tested on: LXFL 529 NSCLC
[5] = tested on: U251 CNS
[6] = tested on: SN12K1 renal
[7] = tested on: LOX IMVI melanoma
[8] = tested on: UACC-62 melanoma
[9] = tested on: SK-MEL-28 melanoma
[10] = tested on: EKVX NSCLC
[11] = tested on: SF-295 CNS
[12] = tested on: COLO 205 colon
[13] = tested on: A549 NSCLC
[14] = tested on: SN12C renal
[15] = tested on: MALME-3M melanoma
[16] = tested on: NCI-H522 lung
[17] = tested on: A498 renal
[18] = tested on: HOP-62 NSCLC
[19] = tested on: SNB-19 CNS
[20] = tested on: SK-MEL-2 melanoma
[21] = tested on: P388/ADR leukemia
[22] = tested on: SF-268 CNS
[23] = tested on: DMS 114 small cell lung
[24] = tested on: MCF7 breast
[25] = tested on: RXF 393 renal
[26] = tested on: OVCAR-3 ovarian
[27] = tested on: HT29 colon
[28] = tested on: ACHN renal
[29] = tested on: KM20L2 colon
[30] = tested on: TK-10 renal
[31] = tested on: SNB-78 CNS
[32] = tested on: NCI-H460 lung
[33] = tested on: M19-MEL melanoma
[34] = tested on: OVCAR-8 ovarian
[35] = tested on: K-562 leukemia
[36] = tested on: MOLT-4 leukemia
[37] = tested on: HL-60(TB) leukemia
[38] = tested on: KM12 colon
[39] = tested on: DLD-1 colon
[40] = tested on: SR leukemia
[41] = tested on: CCRF-CEM leukemia
[42] = tested on: 786-0 renal
[43] = tested on: IGROV1 ovarian
[44] = tested on: XF 498 CNS
[45] = tested on: RPMI-8226 leukemia
[46] = tested on: SK-OV-3 ovarian
[47] = tested on: SNB-75 CNS
[48] = tested on: CAKI-1 renal
[49] = tested on: NCI-H226 lung
[50] = tested on: OVCAR-5 ovarian
[51] = tested on: UO-31 renal
[52] = tested on: SF-539 CNS
[53] = tested on: HCT-15 colon
[54] = tested on: NCI/ADR-RES ovarian
[55] = tested on: SK-MEL-5 melanoma
[56] = tested on: M14 melanoma
[57] = tested on: OVCAR-4 ovarian
[58] = tested on: HCT-116 colon
[59] = tested on: NCI-H23 lung
[60] = tested on: HOP-18 NSCLC
[61] = tested on: P388 leukemia
[62] = tested on: SW-620 colon
[63] = tested on: UACC-257 melanoma

SMILES: C[n+]1ccc(Nc2ccc(NC(=O)c3ccc(Nc4cc[n+](C)c5ccc([N+](=O)[O-])cc45)cc3[N+](=O)[O-])cc2)cc1
- TGI [1]: > 100 µM
- TGI [2]: 81.7 µM and > 77.1 µM
- TGI [3]: > 100 µM
- TGI [4]: 50.8 µM
- TGI [5]: > 84.6 µM
- TGI [6]: > 100 µM
- TGI [7]: > 100 µM
- TGI [8]: > 90.4 µM and 63.6 µM
- TGI [9]: 74.1 µM and 62.2 µM
- TGI [10]: > 92.6 µM
- TGI [11]: 63.6 µM and 60 µM
- TGI [12]: > 100 µM
- TGI [13]: > 100 µM
- TGI [14]: > 100 µM
- TGI [15]: 61.2 µM and 53.9 µM
- TGI [16]: > 100 µM
- TGI [17]: > 94.1 µM
- TGI [18]: 84.9 µM and > 100 µM
- TGI [19]: > 100 µM
- TGI [20]: > 100 µM
- GI50 [21]: 32.9 µM and 12 µM
- TGI [21]: > 54.2 µM and 17.2 µM
- TGI [22]: > 100 µM
- TGI [23]: 27.2 µM and 41.5 µM
- GI50 [24]: 1250 nM and 3340 nM
- TGI [24]: > 58.3 µM
- TGI [25]: > 100 µM
- TGI [26]: 54.6 µM and 54.3 µM
- TGI [27]: > 100 µM
- TGI [28]: > 100 µM
- TGI [29]: > 100 µM
- TGI [30]: > 100 µM
- GI50 [31]: 42.3 µM and > 100 µM
- TGI [31]: > 100 µM
- TGI [32]: > 100 µM
- TGI [33]: 68 µM and 61 µM
- TGI [34]: > 100 µM
- TGI [35]: > 77.6 µM
- TGI [36]: > 100 µM
- GI50 [37]: 4.7 µM and 10.3 µM
- TGI [37]: > 47.7 µM and 69.9 µM
- TGI [38]: > 100 µM
- TGI [39]: > 100 µM
- TGI [40]: > 100 µM
- TGI [41]: > 100 µM
- TGI [42]: 77.4 µM
- TGI [43]: > 100 µM
- TGI [44]: 66.9 µM and > 63.2 µM
- TGI [45]: > 100 µM
- TGI [46]: > 100 µM
- TGI [47]: > 100 µM
- TGI [48]: > 100 µM
- TGI [49]: 99.7 µM and > 100 µM
- TGI [50]: > 100 µM
- TGI [51]: 98.9 µM and > 79.4 µM
- TGI [52]: 68.5 µM and > 66.7 µM
- TGI [53]: > 100 µM
- TGI [54]: > 100 µM
- TGI [55]: 70.4 µM and > 70.4 µM
- TGI [56]: > 100 µM
- TGI [57]: > 100 µM
- TGI [58]: > 100 µM
- TGI [59]: > 100 µM
- TGI [60]: 50.4 µM and 59.5 µM
- TGI [61]: > 35.1 µM
- TGI [62]: > 100 µM
- TGI [63]: > 100 µM
